{"source": "patent US7304174B2", "about": "“CaSR antagonist” (Japan Tobacco Inc., priority 2003, dated 2007)", "key": {"[1]": {"details": "OVX rat, 100 μmol/kg; cited from earlier work"}, "[2]": {"system": "osteoblast and osteoclast", "details": "in vitro; cited from earlier work"}, "PTH release": {"system": "PTH release", "details": "cited from earlier work"}, "PTH secretion [3]": {"system": "PTH secretion", "assay": "Reproductive test of NPS-2143 of the reference (PTH secretion)", "type": "in vivo"}, "PTH secretion [4]": {"system": "PTH secretion", "assay": "PTH secretion action, Experimental Example 3 (serum PTH after oral administration)", "type": "in vivo, male SD rats", "details": "test compound administration group, 1 mg/5 ml/kg oral, rats fasted 20 hrs", "method": "The test compound was orally administered to 5 to 9-week-old male SD rats (Charles River Japan, Inc.) fasted for 20 hrs, using a solvent (0.5% methyl cellulose solution) at a dose of 1 mg/5 ml/kg. A solvent alone was orally administered to the control group at a dose of 5 ml/kg. The blood was drawn from the tail vein immediately before and 15 min, 30 min after administration of the test compound, and serum was obtained. The serum PTH concentration was measured using rat PTH ELISA kit (Amersham Biosciences)."}, "human calcium receptor": {"biological_target": "T1, human calcium receptor (Homo sapiens, UniProt P41180)", "T1 construct": "expressed in transfected cells; host or cells: cell strain derived from rat adrenal, co-transformed with luciferase cDNA", "T1 sequence (P41180 20-1078)": "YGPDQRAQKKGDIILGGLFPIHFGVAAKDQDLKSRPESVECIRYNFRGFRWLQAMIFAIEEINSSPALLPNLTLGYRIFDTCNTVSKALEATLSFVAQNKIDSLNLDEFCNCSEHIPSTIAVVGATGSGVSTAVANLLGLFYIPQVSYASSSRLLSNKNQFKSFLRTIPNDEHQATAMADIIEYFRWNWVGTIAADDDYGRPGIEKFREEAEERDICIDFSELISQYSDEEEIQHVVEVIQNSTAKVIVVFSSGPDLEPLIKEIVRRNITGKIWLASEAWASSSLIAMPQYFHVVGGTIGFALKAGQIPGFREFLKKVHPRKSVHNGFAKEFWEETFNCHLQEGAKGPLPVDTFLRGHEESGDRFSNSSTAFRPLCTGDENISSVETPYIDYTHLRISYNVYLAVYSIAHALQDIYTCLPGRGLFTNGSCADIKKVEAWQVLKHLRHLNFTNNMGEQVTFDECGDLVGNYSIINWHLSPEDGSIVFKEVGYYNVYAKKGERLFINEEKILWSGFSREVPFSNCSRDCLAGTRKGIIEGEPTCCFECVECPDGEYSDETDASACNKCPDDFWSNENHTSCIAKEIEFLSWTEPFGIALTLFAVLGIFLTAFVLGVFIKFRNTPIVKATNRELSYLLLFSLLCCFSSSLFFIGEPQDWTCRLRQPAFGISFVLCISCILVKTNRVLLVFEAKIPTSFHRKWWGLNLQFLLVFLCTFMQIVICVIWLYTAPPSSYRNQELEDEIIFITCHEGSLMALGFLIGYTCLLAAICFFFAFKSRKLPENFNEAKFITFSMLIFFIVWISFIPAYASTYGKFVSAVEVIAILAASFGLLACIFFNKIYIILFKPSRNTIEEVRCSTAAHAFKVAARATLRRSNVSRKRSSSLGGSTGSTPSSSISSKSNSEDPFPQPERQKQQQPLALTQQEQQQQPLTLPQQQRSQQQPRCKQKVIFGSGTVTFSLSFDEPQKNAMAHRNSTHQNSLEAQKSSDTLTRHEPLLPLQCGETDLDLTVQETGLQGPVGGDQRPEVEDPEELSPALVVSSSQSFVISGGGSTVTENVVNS", "assay": "Evaluation of antagonistic action on calcium receptor using reporter gene (luciferase)", "type": "cell-based", "details": "transformed rat adrenal derived cells, 5 mM calcium chloride, culture 4 hrs, luciferase activity; read-out: Reporter gene assay (IC50, concentration showing 50% inhibitory rate)", "how_it_was_run": "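Rat adrenal-derived cells transfected with luciferase and human calcium receptor cDNA, in F12 with 0.5% dialyzed horse serum and 0.25% dialyzed fetal bovine serum. Luciferase luminescence gave % inhibition vs control and blank; IC50 at 50% inhibition.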"}, "PTH secretion [5]": {"system": "PTH secretion", "assay": "PTH secretion action, Experimental Example 2 (serum PTH after oral administration)", "type": "in vivo, male SD rats", "details": "comparative example, 30 mg/5 ml/kg oral"}, "bone resorption": {"system": "bone resorption", "assay": "Concomitant administration of test compound and estrogen: bone resorption marker blood ICTP", "type": "in vivo, ovariectomized rats", "details": "day 13, exclusive administration (Group B estradiol 10 μg/kg s.c.; Group C Example 1-1 3 mg/kg oral), mean ± S.D., n = 5", "method": "The 13-week-old ovariectomized rats were divided into 4 groups of a control group (Group A), an estrogen administration group (Group B), a test compound administration group (Group C), and a test compound and estrogen concomitant administration group (Group D). One sham control group (E group) subjected to a sham surgery was also established. Estradiol was dissolved in 5% benzyl alcohol-corn oil and subcutaneously administered to an estrogen administration groups (Group B and Group D) at the dose of 10 μg/kg. 5% Benzyl alcohol-corn oil was subcutaneously administered to groups (Group A and Group C) free from administration of estrogen. The compound of Example 1-1 was suspended in 0.5% methyl cellulose solution and orally administered to groups (Group C and Group D) to be administered with the test compound at the dose of 3 mg/kg. As regards the groups (Group A and Group B) free from administration of the test compound, 0.5% methyl cellulose solution was orally administered. On day 13 from the start of the administration, the blood was drawn in each group from the tail vein, and serum was obtained. ICTP, which is a blood bone resorption marker, was measured using a commercially available ELISA kit (“RatLaps ELISA kit”, Nordic Bioscience Diagnostics)."}, "PTH secretion [6]": {"system": "PTH secretion", "assay": "Concomitant administration of test compound and estrogen: blood PTH with time", "type": "in vivo, ovariectomized rats", "method": "The 13-week-old ovariectomized rats were divided into 4 groups of a control group (Group A), an estrogen administration group (Group B), a test compound administration group (Group C), and a test compound and estrogen concomitant administration group (Group D). One sham control group (E group) subjected to a sham surgery was also established. Estradiol was dissolved in 5% benzyl alcohol-corn oil and subcutaneously administered to an estrogen administration groups (Group B and Group D) at the dose of 10 μg/kg. 5% Benzyl alcohol-corn oil was subcutaneously administered to groups (Group A and Group C) free from administration of estrogen. The compound of Example 1-1 was suspended in 0.5% methyl cellulose solution and orally administered to groups (Group C and Group D) to be administered with the test compound at the dose of 3 mg/kg. As regards the groups (Group A and Group B) free from administration of the test compound, 0.5% methyl cellulose solution was orally administered.\nIn addition, blood was drawn with time for the measurement of blood PTH at day 16 of administration. The blood was drawn in each group from the tail vein immediately before oral administration and 0.25, 0.5, 1, 2 and 4 hr later, and serum was obtained. For serum PTH measurement, a commercially available ELISA kit (“rat intact PTH ELISA kit”, Immutopics) was used."}}}
{"smiles": "CC(C)(Cc1ccc2ccccc2c1)NC[C@@H](O)COc1cccc(Cl)c1C#N", "note": "[NPS-2143]", "values": [{"measurement": "Blood concentration of NPS-2143 8 hours after the administration", "setting": "[1]", "value": "not less than 100 ng/ml"}, {"measurement": "Blood concentration of NPS-2143 24 hours later", "setting": "[1]", "value": "≤ 10", "unit": "ng/mL"}, {"measurement": "Direct effect on osteoblast and osteoclast", "setting": "[2]", "value": "did not show any direct effect"}, {"measurement": "Blood PTH concentration 4 hours later", "setting": "PTH release; OVX rat, 100 μmol/kg", "value": "about 140 pg/ml"}, {"measurement": "Blood PTH concentration in 30 minutes", "setting": "PTH release; OVX rat, rat PTH (1-34) 5 μg/kg, NPS-2143 100 μmol/kg", "value": "about 115 pg/ml"}, {"measurement": "Effect on bone (bone density)", "setting": "PTH release; OVX rats, oral", "value": "free of bone decrease or bone increase"}, {"measurement": "Release of PTH", "setting": "PTH release; OVX rats, oral", "value": "significantly promotes release of PTH"}, {"measurement": "PTH secretion promoting action", "setting": "PTH secretion [3]", "value": "sustained secretion promoting action"}]}
{"smiles": "Cc1ccc(CC(C)(C)NC[C@@H](O)CO[C@H](C)c2ccccc2Oc2ccc(C(=O)O)cc2)cc1F", "note": "[Example 2-1, 4-[2-[(1R)-[(2R)-3-[[1-(3-fluoro-4-methylphenyl)-2-methylpropan-2-yl]amino]-2-hydroxypropoxy]ethyl]phenoxy]benzoic acid]", "values": [{"measurement": "Serum PTH concentration 15 min later", "setting": "PTH secretion [4]; 15 min", "value": "25.1 ± 2.3", "unit": "pg/mL"}, {"measurement": "Serum PTH concentration 30 min later", "setting": "PTH secretion [4]; 30 min", "value": "19.1 ± 0.9", "unit": "pg/mL"}, {"measurement": "IC50", "setting": "human calcium receptor", "value": 0.015, "unit": "µM"}]}
{"smiles": "COc1ccc(-c2cccc(C(=O)O)c2)cc1C(OC[C@H](O)CNC(C)(C)Cc1ccc2ccccc2c1)C1CC1", "note": "(some centres unmarked)", "values": [{"measurement": "PTH secretion activity", "setting": "PTH secretion [5]", "value": "no PTH secretion activity was exhibited"}]}
{"smiles": "C[C@]12CC[C@@H]3c4ccc(O)cc4CC[C@H]3[C@@H]1CC[C@@H]2O", "note": "[Estradiol, reference compound]", "values": [{"measurement": "Blood ICTP concentration", "setting": "bone resorption", "value": "20.93 ± 3.18", "unit": "ng/mL"}, {"measurement": "Change of blood PTH with time", "setting": "PTH secretion [6]; Table 66, exclusive administration", "value": "increase in blood PTH was not observed"}, {"measurement": "PTH (1–84) concentration 0.25 hr", "setting": "PTH secretion [6]; day 16, 0.25 hr, exclusive administration (Group B estradiol; Group C Example 1-1 3 mg/kg oral)", "value": "53.65 ± 56.31", "unit": "pg/mL"}, {"measurement": "PTH (1–84) concentration 0.5 hr", "setting": "PTH secretion [6]; day 16, 0.5 hr, exclusive administration (Group B estradiol; Group C Example 1-1 3 mg/kg oral)", "value": "56.55 ± 21.71", "unit": "pg/mL"}, {"measurement": "PTH (1–84) concentration 1 hr", "setting": "PTH secretion [6]; day 16, 1 hr, exclusive administration (Group B estradiol; Group C Example 1-1 3 mg/kg oral)", "value": "35.70 ± 21.30", "unit": "pg/mL"}, {"measurement": "PTH (1–84) concentration 2 hr", "setting": "PTH secretion [6]; day 16, 2 hr, exclusive administration (Group B estradiol; Group C Example 1-1 3 mg/kg oral)", "value": "41.94 ± 20.85", "unit": "pg/mL"}, {"measurement": "PTH (1–84) concentration 4 hr", "setting": "PTH secretion [6]; day 16, 4 hr, exclusive administration (Group B estradiol; Group C Example 1-1 3 mg/kg oral)", "value": "46.84 ± 14.62", "unit": "pg/mL"}, {"measurement": "PTH (1–84) concentration 0 hr", "setting": "PTH secretion [6]; day 16, immediately before oral administration, exclusive administration (Group B estradiol 10 μg/kg s.c.; Group C Example 1-1 3 mg/kg oral)", "value": "36.83 ± 14.45", "unit": "pg/mL"}]}
